# Literature values, collected in Sander's compilation of Henry's law constants (doi:10.1007/978-94-007-2275-0).
# Experiment: Henry solubility constant Hcp at 298.15 K (mol/(m3 Pa))
# Details: reference: Warneck and Williams (2012); cited value
row,SMILES,Henry solubility constant Hcp
1,[Ar] [argon],1.4e-05
2,S=C=S [carbon disulfide],0.00061
3,[C-]#[O+] [carbon monoxide],9.7e-06
4,O=C=S [carbon oxide sulfide],0.00021
5,FC(F)(Cl)Cl [dichlorodifluoromethane],3e-05
6,COO [methyl hydroperoxide],2.9
7,CC(=O)OO[N+](=O)[O-] [peroxyacetyl nitrate],0.029
8,FC(F)(F)F [tetrafluoromethane],2.1e-06

# Further lines, results first:
row,Henry solubility constant Hcp,SMILES
1,0.0056,CSC [dimethyl sulfide]
2,0.00024,[N-]=[N+]=O [dinitrogen monoxide]
3,910,OO [hydrogen peroxide]
4,9.9e-05,[O]N=O [nitrogen dioxide]
5,1.9e-05,[N]=O [nitrogen monoxide]
6,1.2e-05,O=O [oxygen]
7,2.4e-06,FS(F)(F)(F)(F)F [sulfur hexafluoride]
